In the oligonucleotide strings, read from the 5' end, every base follows the letter of its sugar. An asterisk marks phosphorothioate; unmarked linkages are phosphodiester. Other units and linkages are bracketed, terminal groups are in braces. A string of capitals states the bases alone. m = 2'-O-methyl
Tests used:
dystrophin exon 51 = experiment: Exon 51 skip analysis in differentiated human myotubes from a non-DMD (healthy) donor (KM155); format: cell-based; conditions: alone or + 4 μM SO1861-EMCH (see label), 72 hrs
Protocol: Immortalized human myoblasts from non-DMD donors (KM155) and myoblasts from a DMD-affected donor (DM8036) were cultured in Skeletal Muscle Cell Growth Medium (PromoCell, Germany) with supplementary pack according to manufacturer's instructions, further supplemented with 15% fetal bovine serum (Gibco, United Kingdom) and 0.5% gentamicin (Sigma-Aldrich, USA). For differentiation, cells were seeded on a 0.5% gelatin-coated surface, and at ˜70-80% confluence, the proliferation medium was replaced by DMEM (Gibco) supplemented with 2% FBS (Gibco), 2% GlutaMAX, and 1% glucose (Sigma-Aldrich) and 0.5% gentamycin. Treatments were started after at least 3 days up to a maximum of 5 days of differentiation (based on the presence of differentiated myotubes).
RNA was isolated with the TRIsure Isolation Reagent (Bioline) and chloroform extraction; isopropanol precipitation of RNA from the aqueous phase was performed as known to someone skilled in the art. For cDNA synthesis, 1000 ng of total RNA was used and diluted in an appropriate amount of RNase-free water to yield 8 μl RNA dilution. The priming premixed contained 1 μl dNTP mix (10 mM each) and 1 μl specific reverse primer (for KM155, h53R 5′-[…]-3′ [SEQ ID NO: 5]; for DM8036, h55R 5′-[…]-3′ [SEQ ID NO: 6]). This mixture was heated for 5 min at 70° C., then chilled on ice for at least 1 min. A reaction mixture was prepared containing 0.5 μl rRNasin (Promega), 4.0 μl RT buffer, 1.0 μl Tetro RT (Bioline), and 4.5 μl RNase-free water, and was added to the chilled mixture to yield a total volume of 20 μl per reaction. The RT-PCR was run for 60 min at 42° C., then 5 min at 85° C., and chilled on ice. For skip analysis, a nested PCR approach was followed. To this end, in the first PCR, 3 μl cDNA were added to a mix of 2.5 μl 10×SuperTaq PCR buffer, 0.5 μl dNTP mix (10 mM each), 0.125 μl Taq DNA polymerase TAQ-RO (5 U/μl; Roche) 16.875 μl RNase-free water and 1 μl ([…]) of each primer flanking the targeted exons were used: for KM155, h48F 5′-[…]-3′ [SEQ ID NO: 7] and h53R 5′-[…]-3′ [SEQ ID NO: 5]; for DM8036, h47F2 5′-[…]-3′ [SEQ ID NO: 8] and h54R 5′-[…]-3′ [SEQ ID NO: 9]. These samples were subjected to a PCR run of 5 min at 94° C., then 25 cycles with 40 sec at 94° C., 40 sec at 60° C., 180 sec at 72° C., after which for 7 min at 72° C. For the second PCR, 1.5 μl PCR1 sample were added to a mix of 5 μl 10×SuperTaq PCR buffer, 1 μl dNTP mix (10 mM each), 0.25 μl Taq DNA polymerase TAQ-RO (5 U/μl; Roche), 38.25 μl RNase-free water and 2 μl ([…]) of each primer flanking the targeted exons were used: for KM155, h49F 5′-[…]-3′ [SEQ ID NO: 10] and h52R2 5′-[…]-3′ [SEQ ID NO: 11]; for DM8036, h47F 5′-[…]-3′ [SEQ ID NO: 12] and h53R 5′-[…]-3′ [SEQ ID NO: 13]. These samples were subjected to a PCR run of 5 min at 94° C., then 32 cycles with 40 sec at 94° C., 40 sec at 60° C., 60 sec at 72° C., after which for 7 min at 72° C. Exon skipping levels were quantified with the Femto Pulse System using the Ultra Sensitivity NGS Kit (Agilent), according to the manufacturer's instructions. Alternatively, the specific PCR fragments were analyzed using Bioanalyzer 2100 with DNA1000 chip (lab-on-a-chip; Agilent), or separated on 2% agarose gels run at 120 V. Gels were imaged and band intensities were quantified using ImageJ. The expected non-skipped product has a size of 408 bp (KM155) and 475 bp (DM8036), and the skip product of 175 bp (KM155) or 242 bp (DM8036), respectively.
Immortalized human myoblasts from non-DMD donors (KM155) were cultured as described above in the Methods (as performed in Examples 1-6).
RNA was isolated with the TRIsure Isolation Reagent (Bioline) and chloroform extraction; isopropanol precipitation of RNA from the aqueous phase was performed as known to someone skilled in the art. […]

dystrophin exon 23 = experiment: Exon 23 skip analysis in differentiated murine C2C12 myotubes; format: cell-based, mouse
Protocol: Murine myoblast cell line C2C12 was maintained in 10% FBS DMEM medium+Pen/Strep and plated at 240,000 cells per well (cpw) in 24-well plates or 40,000 cpw in 96-well plates (wp) in maintenance medium (10% FBS in DMEM medium+Pen/Strep) and incubated at 37° C. with 5% CO2. Twenty-four hours after seeding, cells were switched to differentiation media (2% horse serum in DMEM) and incubated for 3 days before refreshing the medium. After another 24 hours, medium was refreshed again and compounds were added and incubated for 48 hours. Differentiation medium was then refreshed (without compounds), and cells were incubated for another 24 hours. At 72 hours total post treatment, cells in the 24-wp were harvested for exon skip analysis and the cell viability was assessed on the 96-wp.
For analysis of skip from murine cell lines, cells were harvested and RNA was isolated using 0.5 ml TRIzol™ Reagent (Thermo Scientific) per sample, according to the manufacturer's instruction. […] Samples were mixed with 2 μl 6×loading buffer, then 16 μl were loaded onto an 2% agarose gel and ran for 60-90 min at 80 V. Gels were imaged and band intensities were quantified with a ChemiDoc™ XRS+System and Image Lab™ Software (BioRad). […]

DMD-PMO: PMO 5′-CTCCAACATCAAGGAAGATGGCATTTCTAG-3′ (SEQ ID NO: 2); exon 51 skipping of human dystrophin; same sequence but not 5′-modifications as eteplirsen (all phosphorodiamidate morpholino (PMO))
% exon skipping (Femto) (dystrophin exon 51; 0.08 μM DMD oligo): 0%
% exon skipping (Femto) (dystrophin exon 51; 0.31 μM DMD oligo): 0%
% exon skipping (Femto) (dystrophin exon 51; 1.25 μM DMD oligo): 0%
% exon skipping (Femto) (dystrophin exon 51; 5 μM DMD oligo): 0%
% exon skipping (Femto) (dystrophin exon 51; 20 μM DMD oligo): 4%

M23D: PMO 5′-GGCCAAACCTCGGCTTACCTGAAAT-3′ (SEQ ID NO: 3) that induces exon 23 skipping of mouse dystrophin (all phosphorodiamidate morpholino (PMO); further chemistry not fully specified)
exon 23 skip (dystrophin exon 23; 500 nM M23D alone (0 nM conjugate), Example 3): 5%
exon 23 skip activity (dystrophin exon 23; 500 nM M23D alone, Example 8, FIG. 20C): no exon skip activity

DMD-ASO: 2′O-methyl-phosporothioate antisense oligonucleotide 5′-UCAAGGAAGAUGGCAUUUCU-3′ (SEQ ID NO: 1); exon 51 skipping of human dystrophin; same sequence and chemistry as drisapersen (antisense mU*mC*mA*mA*mG*mG*mA*mA*mG*mA*mU*mG*mG*mC*mA*mU*mU*mU*mC*mU; further chemistry not fully specified)
% exon skipping (Lab-on-a-chip) (dystrophin exon 51; 0.08 μM DMD oligo): 0%
% exon skipping (Lab-on-a-chip) (dystrophin exon 51; 0.31 μM DMD oligo): 0%
% exon skipping (Lab-on-a-chip) (dystrophin exon 51; 1.25 μM DMD oligo): 0%
% exon skipping (Lab-on-a-chip) (dystrophin exon 51; 5 μM DMD oligo): 1%
